Assay results reported in US8580834B2, “Small molecule modulators of hepatocyte growth factor (scatter factor) activity” (Angion Biomedica Corp., priority 2002, dated 2013).

Legend:
HUVECs = assay: Nitric oxide production in HUVECs, DAF 2-DA fluorescence; assay type: cell-based, human; settings: 24 hours
Description: c. […] HUVECs are incubated with either vehicle, HGF/SF, instant compounds, or SNAP for 24 hours, loaded with the nitric oxide-sensitive fluorescence indicator DAF 2-DA and imaged under a laser scanning confocal microscope.
HGF and compounds of the invention may exert their anti-apoptotic effects in part through stimulation of nitric oxide production. We incubated HUVECs with either HGF or instant compounds and measured NO production using the nitric oxide-sensitive fluorescence indicator DAF 2-DA. […] Without wishing to be bound to any particular theory, we propose that the anti-apoptotic activities of both HGF and compounds of the invention may be mediated by nitric oxide production.

[1] = MTT cell viability assay, adriamycin-induced apoptosis; assay type: cell-based; settings: dog, MDCK cells, of untreated cells, read-out: cell viability, adriamycin alone
Excerpt: (§1) a. HGF/SF and instant compounds have significant anti-apoptotic activity in cultured cell lines.
(§2) Using the MTT cell viability assay we tested the ability of compounds of the invention to protect cells from adriamycin-induced apoptosis. […] Adriamycin alone decreased cell viability to 56% of untreated cells.

[2] = system: human hepatic stellate cell line LX2; assay: Antifibrotic activity: collagen I mRNA in LX2 cells, real time PCR; assay type: cell-based; settings: serum starved LX2 cells, 24 hours; HGF 100 ng/ml, compounds 12 to 24 ug/ml
Description: a. Antifibrotic Activity in Hepatic Stellate Cells. Serum starved (activated) LX2 cells (an immortalized human hepatic stellate cell line) that are treated with HGF/SF or a compound of the invention show a decrease in collagen I mRNA expression, as well as expression of other fibrotic marker genes, related to significant antifibrotic activity.
The antifibrotic effects of HGF and compounds of the invention in the immortalized human hepatic stellate cell line LX2 are determined. Serum starved LX2 cells are treated for 24 hours with HGF at 100 ng/ml and compounds of the invention at doses ranging from 12 to 24 ug/ml. RNA is then isolated and real time PCR was performed to evaluate changes in collagen I mRNA. […] Additional experiments to determine the effects of HGF and compounds on TGFb-1, bPDGF-R and MMP-1 mRNA are also performed to more completely characterize activities of these compounds which can contribute to their antifibrotic effects.

[3] = system: NIH-3T3 cells transfected with c-met receptor; assay: Protection against adriamycin-induced apoptosis, c-met transfected NIH-3T3 cells, MTT assay; assay type: cell-based; settings: pre-treated 48 hr with HGF (50 ng/ml) or compound (12 mg/ml), adriamycin (15 mM) 2 hr
Description: b. Protection from apoptosis in NIH-3T3 cells transfected with c-met receptor.
NIH3T3 cells were pre-treated with HGF (50 ng/ml) or compound (12 mg/ml) for 48 hr. Cells were then exposed to adriamycin (ADR) (15 mM) for 2 hr, and post-incubated for 48 hr before performing the MTT assay. […] There was no protection from apoptosis by either compound in non-transfected cells lacking the c-met receptor.

isolated aortic rings = assay: Aortic ring assay; assay type: cell-based, Sprague Dawley rats; settings: instant compound or HGF (100 ng/ml), day 5
Excerpt: a. Aortic ring assay. Thoracic artery rings from rats are embedded in Matrigel and grown for 5 days in the presence or absence of HGF/SF or compounds of the invention. Treatment with compounds of the invention causes an increased outgrowth from the rings similar to that seen with HGF/SF.
Thoracic aortas from 100 gm Sprague Dawley rats are isolated under sterile conditions and cut into rings of approximately 0.8 to 1.0 mm in length. The rings are embedded in Matrigel in the bottom of 48 well culture plates and instant compound […] or HGF (100 ng/ml, as positive control) was added in […] of serum-free tissue culture medium (Human endothelial-SFM basal growth medium plus 1% bovine serum albumin). An inventive compound or HGF was replenished on day 4; on day 5, the rings were photographed and examined for outgrowths. […] Without wishing to be bound to any particular theory, we propose that inventive compounds are capable of activating proliferation of cells required for angiogenesis.

MDCK cells = assay: MTT cell viability assay, adriamycin-induced apoptosis; assay type: cell-based
Excerpt: as §1, §2

C57BL/6 mice = settings: earlier studies with HGF; cited from earlier work

Row | Molecule | nitric oxide production (DAF 2-DA fluorescence) (HUVECs) | viability [1] [%] | decrease in collagen I mRNA expression [2] [%] | protection from adriamycin-induced apoptosis (MTT) [3] | nitric oxide production (DAF 2-DA fluorescence) (HUVECs; listed as HGF/SF) | endothelial cell outgrowth from aortic rings (isolated aortic rings) | cell viability after pretreatment, then adriamycin (MDCK cells; adriamycin-induced apoptosis) [%] | cell viability, compound or HGF alone (MDCK cells; without adriamycin) | vessel area (C57BL/6 mice)
1 | CC(=O)N[C@@H](C(=O)O)C(C)(C)SN=O (racemic) [SNAP, reference compound] | significant increase in fluorescence | – | – | – | – | – | – | – | –
2 | COc1cccc2c1C(=O)c1c(O)c3c(c(O)c1C2=O)C[C@@](O)(C(=O)CO)C[C@@H]3O[C@H]1C[C@H](N)[C@H](O)[C@H](C)O1 [Adriamycin, reference compound] | – | 56 | – | – | – | – | – | – | –
3 | HGF: pleiotropic growth factor that stimulates cell growth, cell motility, morphogenesis and angiogenesis | stimulate nitric oxide production | – | 70 | protect the cells from adriamycin-induced apoptosis | significant increase in fluorescence | stimulated equivalent endothelial cell outgrowth | 94 | no effect on cell viability | dose-dependently increases the vessel area
